In assay [1] the target is T1, human Nav 1.7 channels stably expressed in HEK 293 cells (Homo sapiens, UniProt Q15858).
T1 construct: expressed in transfected cells; host or cells: HEK 293
Put plainly: IonWorks Quattro automated patch-clamp, inactivated state block of Nav 1.7. To be noted: double-pulse protocol, HEK 293 cells held at -100 mV, read-out: potency for the Nav 1.7 sodium ion channel (IC50, IonWorks). The format is cell-based. How it is done:
(§1) IonWorks® Experimental Procedure
(§2) Compounds were tested on human Nav 1.7 and Nav 1.5 channels stably expressed in HEK 293 cells. Sodium current measurements on IonWorks Quattro: An automated patch-clamp assay on the IonWorks Quattro platform (Molecular Devices) was used to measure state-dependent inhibition of human Nav 1.7 and Nav 1.5 channels. Cells were sealed on a planar substrate using the Population Patch Plate (PPC) technology. Electrical access was obtained using both nystatin and amphotericin. A double-pulse protocol was used for the determination of IC50 values for inactivated state block. Nav 1.7 and Nav 1.5 expressing cells were voltage clamped at −100 mV and −110 mV, respectively. A depolarizing prepulse to −10 mV (Nav 1.7) or −30 mV (Nav 1.5) for 1000 ms followed by a 10 ms repolarization to ˜100 mV (Nav1.7) or −110 mV (Nav 1.5) was given to generate fractional channel inactivation of ˜50%, followed by a 10 ms test pulse to −10 mV (Nav 1.7) or −30 mV (Nav 1.5) to measure peak current in control conditions and after compound addition. The following recording solutions were used (mM). External: 150 NaCl, 2 CaCl2, 5 KCl, 1 Mg Cl2, 10 HEPES, 12 Dextrose; internal: 120 CsF, 30 CsCl, 10 EGTA, 5 HEPES, 5 NaF, 2 MgCl2.
(§3) For all electrophysiology experiments, offline analysis was used to determine percent inhibition as a function of drug concentration. IC50 values were determined by fitting to the Hill equation.
(§4) The various compounds in Examples 1 through 4 and Tables 1 through 3 exemplified above were assayed for activity and selectivity using the foregoing IonWorks® technique. The results are reported in the following paragraph in a format expressing the identification of the compound with reference Example and compound (e.g. Ex 1-9 is Example 1, compound 9) followed by the observed potency in nM and the ratio of Nav1.7 potency: Nav1.5 potency as described here. Thus, Ex1-9: 1.7=65/ratio=641 identifies compound Example 1, compound 9 as having 65 nM potency for the Nav 1.7 sodium ion channel (as measured by IonWorks®) and a ratio of 641 Nav 1.7: Nav 1.5 potency, determined by IonWorks® measurement.

Assay [2] concerns the target T2, human Nav 1.5 channels stably expressed in HEK 293 cells (Homo sapiens, UniProt Q14524).
T2 construct: expressed in transfected cells; host or cells: HEK 293
Put plainly: IonWorks Quattro automated patch-clamp, inactivated state block of Nav 1.5 (reported as ratio to Nav 1.7 potency). The format is cell-based. To be noted: selectivity for Nav 1.7 over Nav 1.5, both by IonWorks. How it is done:
as §1, §2, §3, §4
In general terms: Patch clamp records ionic current or voltage across a cell membrane.

A value given as a limit tells only on which side of the number the result lay.

Broadly, the IC50 is the concentration at which inhibition is half-maximal.

T2 sequence (Q14524 whole entry): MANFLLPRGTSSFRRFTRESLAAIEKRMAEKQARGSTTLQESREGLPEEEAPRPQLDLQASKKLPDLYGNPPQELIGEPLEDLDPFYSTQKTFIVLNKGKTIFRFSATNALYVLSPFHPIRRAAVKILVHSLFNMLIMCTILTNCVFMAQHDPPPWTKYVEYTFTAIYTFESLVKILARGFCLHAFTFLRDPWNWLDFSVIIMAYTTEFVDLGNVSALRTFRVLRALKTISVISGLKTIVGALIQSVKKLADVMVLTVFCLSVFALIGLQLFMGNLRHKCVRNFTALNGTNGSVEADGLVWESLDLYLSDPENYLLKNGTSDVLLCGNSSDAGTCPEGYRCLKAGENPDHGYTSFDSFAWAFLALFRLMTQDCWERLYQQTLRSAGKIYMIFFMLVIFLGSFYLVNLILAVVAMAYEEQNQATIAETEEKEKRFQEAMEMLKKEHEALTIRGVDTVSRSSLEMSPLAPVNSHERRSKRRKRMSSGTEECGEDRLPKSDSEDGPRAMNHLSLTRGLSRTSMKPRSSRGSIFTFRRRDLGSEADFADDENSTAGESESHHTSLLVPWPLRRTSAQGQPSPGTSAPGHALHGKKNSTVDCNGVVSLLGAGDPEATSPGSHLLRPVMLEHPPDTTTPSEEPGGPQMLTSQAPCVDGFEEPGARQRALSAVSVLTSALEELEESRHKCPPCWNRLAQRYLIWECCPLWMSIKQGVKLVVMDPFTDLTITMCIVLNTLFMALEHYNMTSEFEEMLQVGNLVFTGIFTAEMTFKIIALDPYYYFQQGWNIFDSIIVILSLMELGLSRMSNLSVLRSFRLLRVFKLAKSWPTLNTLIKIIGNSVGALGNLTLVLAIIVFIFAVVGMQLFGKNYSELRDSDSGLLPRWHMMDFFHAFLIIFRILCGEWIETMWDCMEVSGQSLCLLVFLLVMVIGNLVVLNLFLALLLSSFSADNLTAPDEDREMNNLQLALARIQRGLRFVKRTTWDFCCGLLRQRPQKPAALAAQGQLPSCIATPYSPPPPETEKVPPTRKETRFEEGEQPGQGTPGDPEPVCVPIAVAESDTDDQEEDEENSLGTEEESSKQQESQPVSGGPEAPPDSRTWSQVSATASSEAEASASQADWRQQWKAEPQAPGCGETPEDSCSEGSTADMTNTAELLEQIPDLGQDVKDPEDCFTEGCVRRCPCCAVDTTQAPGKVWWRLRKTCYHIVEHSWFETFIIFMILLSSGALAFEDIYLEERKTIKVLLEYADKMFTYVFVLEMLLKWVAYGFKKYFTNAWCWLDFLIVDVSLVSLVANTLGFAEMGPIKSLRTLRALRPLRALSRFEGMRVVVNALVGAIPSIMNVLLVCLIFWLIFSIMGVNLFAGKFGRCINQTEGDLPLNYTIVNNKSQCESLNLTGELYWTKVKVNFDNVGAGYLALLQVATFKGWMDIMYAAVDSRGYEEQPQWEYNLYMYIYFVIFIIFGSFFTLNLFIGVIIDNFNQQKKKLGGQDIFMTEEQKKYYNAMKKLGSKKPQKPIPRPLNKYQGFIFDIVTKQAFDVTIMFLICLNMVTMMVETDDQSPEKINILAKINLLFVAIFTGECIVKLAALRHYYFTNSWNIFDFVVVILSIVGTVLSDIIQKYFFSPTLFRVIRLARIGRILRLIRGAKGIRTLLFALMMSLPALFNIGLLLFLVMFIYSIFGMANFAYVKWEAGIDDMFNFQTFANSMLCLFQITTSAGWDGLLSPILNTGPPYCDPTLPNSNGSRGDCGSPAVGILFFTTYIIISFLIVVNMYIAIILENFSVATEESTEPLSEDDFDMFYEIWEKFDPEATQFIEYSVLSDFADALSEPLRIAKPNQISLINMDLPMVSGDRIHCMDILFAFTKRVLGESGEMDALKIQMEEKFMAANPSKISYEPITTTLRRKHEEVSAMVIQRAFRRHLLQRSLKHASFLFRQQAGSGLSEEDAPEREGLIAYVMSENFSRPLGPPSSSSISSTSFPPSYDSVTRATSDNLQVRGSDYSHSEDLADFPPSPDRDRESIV
T1 sequence (Q15858 whole entry): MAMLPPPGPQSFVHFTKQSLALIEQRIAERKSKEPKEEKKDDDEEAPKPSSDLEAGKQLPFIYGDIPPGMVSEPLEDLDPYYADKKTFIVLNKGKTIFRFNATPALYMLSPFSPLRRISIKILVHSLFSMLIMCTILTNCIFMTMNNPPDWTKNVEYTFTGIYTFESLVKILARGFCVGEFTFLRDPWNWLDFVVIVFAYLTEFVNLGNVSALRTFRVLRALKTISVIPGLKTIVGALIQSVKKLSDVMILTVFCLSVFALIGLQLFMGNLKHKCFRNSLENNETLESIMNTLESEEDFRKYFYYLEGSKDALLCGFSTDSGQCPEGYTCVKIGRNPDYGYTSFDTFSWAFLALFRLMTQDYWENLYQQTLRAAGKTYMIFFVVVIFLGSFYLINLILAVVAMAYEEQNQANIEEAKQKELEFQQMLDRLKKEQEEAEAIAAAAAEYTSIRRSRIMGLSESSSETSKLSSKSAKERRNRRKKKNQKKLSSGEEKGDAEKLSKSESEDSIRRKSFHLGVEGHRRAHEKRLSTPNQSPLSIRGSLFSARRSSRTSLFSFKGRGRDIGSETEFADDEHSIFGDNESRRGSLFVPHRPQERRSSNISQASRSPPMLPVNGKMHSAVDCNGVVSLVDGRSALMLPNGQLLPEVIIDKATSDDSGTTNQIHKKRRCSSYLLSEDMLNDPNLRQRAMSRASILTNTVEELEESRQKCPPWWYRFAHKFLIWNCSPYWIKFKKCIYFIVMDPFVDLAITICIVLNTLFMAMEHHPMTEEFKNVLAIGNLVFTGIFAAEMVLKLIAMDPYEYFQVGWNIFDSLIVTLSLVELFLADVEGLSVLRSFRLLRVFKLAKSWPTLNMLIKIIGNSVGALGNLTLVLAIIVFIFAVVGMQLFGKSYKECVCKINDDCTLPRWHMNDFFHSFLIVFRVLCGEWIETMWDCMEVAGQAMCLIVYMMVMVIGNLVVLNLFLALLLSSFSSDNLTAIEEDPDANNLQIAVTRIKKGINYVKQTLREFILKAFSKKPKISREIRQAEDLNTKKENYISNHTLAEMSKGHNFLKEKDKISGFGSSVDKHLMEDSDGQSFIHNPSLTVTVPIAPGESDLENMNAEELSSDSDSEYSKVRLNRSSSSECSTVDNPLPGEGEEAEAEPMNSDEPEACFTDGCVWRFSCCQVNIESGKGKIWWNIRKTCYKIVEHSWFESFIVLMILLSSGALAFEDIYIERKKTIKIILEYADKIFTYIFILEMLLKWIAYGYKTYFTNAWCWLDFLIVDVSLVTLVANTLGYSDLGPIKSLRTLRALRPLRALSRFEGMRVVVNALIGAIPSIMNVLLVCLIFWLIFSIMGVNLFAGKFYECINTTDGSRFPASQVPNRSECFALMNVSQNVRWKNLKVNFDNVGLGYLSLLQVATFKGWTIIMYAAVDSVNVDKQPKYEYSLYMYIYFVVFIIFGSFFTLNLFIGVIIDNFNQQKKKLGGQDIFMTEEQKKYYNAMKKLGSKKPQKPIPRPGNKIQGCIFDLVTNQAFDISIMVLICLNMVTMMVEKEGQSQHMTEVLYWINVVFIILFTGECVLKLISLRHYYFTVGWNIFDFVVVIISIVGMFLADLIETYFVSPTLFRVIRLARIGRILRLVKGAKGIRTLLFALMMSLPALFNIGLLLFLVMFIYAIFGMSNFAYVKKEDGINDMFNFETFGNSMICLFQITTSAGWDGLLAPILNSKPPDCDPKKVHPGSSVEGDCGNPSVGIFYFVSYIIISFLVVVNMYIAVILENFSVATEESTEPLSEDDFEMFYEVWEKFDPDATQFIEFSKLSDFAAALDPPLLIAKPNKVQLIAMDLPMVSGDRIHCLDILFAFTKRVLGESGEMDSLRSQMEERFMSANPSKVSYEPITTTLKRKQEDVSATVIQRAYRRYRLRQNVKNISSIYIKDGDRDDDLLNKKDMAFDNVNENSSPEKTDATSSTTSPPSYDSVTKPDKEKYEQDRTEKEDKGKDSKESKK

Turning to `O=S(=O)(Nc1nccs1)c1ccc(NCCCCNC[C@@H]2CCCN2)c(C(F)(F)F)c1` [Ex 7-04, 4-[(4-{[(2S)-pyrrolidin-2-ylmethyl]amino}butyl)amino]-N-1,3-thiazol-2-yl-3-(trifluoromethyl)benzenesulfonamide], the concentration for half-maximal inhibition (IC50) in assay [1] was 41 nM. Besides, in assay [2], the “ratio of Nav 1.7 : Nav 1.5 potency (IonWorks)” value (“ratio” for short) is greater than 800.

On to `O=S(=O)(Nc1nccs1)c1cc(Cl)c(NC[C@H]2C[C@@H]3CN(C[C@@H]4CCCN4)C[C@@H]3C2)cc1F` [Ex 6-8, 5-chloro-2-fluoro-4-[({(3aR,5R,6aS)-2-[(2S)-pyrrolidin-2-ylmethyl]octahydrocyclopenta[c]pyrrol-5-yl}methyl)amino]-N-1,3-thiazol-2-ylbenzenesulfonamide], for which, in assay [1], the half-maximal inhibitory concentration (IC50) turned out to be 39 nM. The “ratio” value in assay [2] was greater than 850.

`NCC(F)CNCCCCNc1cc(F)c(S(=O)(=O)Nc2ncc(F)s2)cc1Cl` (stereo not drawn) [Ex 16-46, 4-({4-[(3-amino-2-fluoro-propyl)amino]butyl}amino)-5-chloro-2-fluoro-N-(5-fluoro-1,3-thiazol-2-yl)-benzenesulfonamide]: in assay [1], the IC50 is 34 nM. For the same molecule, the “ratio” value in assay [2] is reported as greater than 970.

Regarding `NCC1(c2ccccc2)CCN(CCCCNc2cc(F)c(S(=O)(=O)Nc3nccs3)cc2Cl)C1` (stereo not drawn) [Ex 1-50, 4-({4-[3-(aminomethyl)-3-phenylpyrrolidin-1-yl]butyl}amino)-5-chloro-2-fluoro-N-1,3-thiazol-2-ylbenzenesulfonamide], the concentration for half-maximal inhibition (IC50) in assay [1] is 46 nM. In addition, in assay [2], the “ratio” value is on record as greater than 717.

As to `N#Cc1cc(S(=O)(=O)Nc2nccs2)c(F)cc1NCCCCN[C@@H]1CCNC1` [Ex 16-39, 5-cyano-2-fluoro-4-({4-[(3R)-pyrrolidin-3-ylamino]-butyl}amino)-N-1,3-thiazol-2-yl-benzenesulfonamide], the IC50 in assay [1] was determined as 36 nM. In assay [2], the “ratio” value was greater than 917.

Consider `O=S(=O)(Nc1nccs1)c1cc(Cl)c(NCCCCNC2C[C@@H]3C[C@H]2CN3)cc1F` (stereo partly drawn) [Ex 1-24, 4-({4-[(1S,4S)-2-azabicyclo[2.2.1]hept-5-ylamino]butyl}amino)-5-chloro-2-fluoro-N-1,3-thiazol-2-ylbenzenesulfonamide], for which, in assay [1], the 50% inhibitory concentration (IC50) was 17 nM. Also, the “ratio” value in assay [2] is greater than 1940.

In the case of `N[C@H]1CCCN(CCCCNc2cc(F)c(S(=O)(=O)Nc3nccs3)cc2Cl)C1` [Ex 1-37, 4-({4-[(3S)-3-aminopiperidin-1-yl]butyl}amino)-5-chloro-2-fluoro-N-1,3-thiazol-2-ylbenzenesulfonamide], the IC50 in assay [1] worked out at 97 nM. The “ratio” value in assay [2] is recorded as greater than 340.

Take `CO[C@H]1CN[C@H](CNCCCCNc2cc(F)c(S(=O)(=O)Nc3nccs3)cc2Cl)C1` [Ex 8-16]: in assay [1], the IC50 was determined as 63 nM. For the same molecule, the “ratio” value in assay [2] is listed as greater than 520.

Consider `O=S(=O)(Nc1nccs1)c1cc(Cl)c(NCCCCNC[C@@H]2C[C@@H](c3ccccc3)CN2)cc1F` [Ex 8-4, 5-chloro-2-fluoro-4-{[4-({[(2S,4S)-4-phenyl-pyrrolidin-2-yl]methyl}-amino)butyl]amino}-N-1,3-thiazol-2-yl-benzenesulfonamide], for which the IC50 in assay [1] was 32 nM. Also, the “ratio” value in assay [2] was greater than 1030.

Regarding `CNCCNCCCCNc1cc(F)c(S(=O)(=O)Nc2nc(C)cs2)cc1Cl` [Ex 16-51, 5-chloro-2-fluoro-4-[(4-{[2-(methylamino)ethyl]amino}-butyl)amino]-N-(4-methyl-1,3-thiazol-2-yl)benzene-sulfonamide], in assay [1], the half-maximal inhibitory concentration (IC50) turned out to be 35 nM. Moreover, the “ratio” value in assay [2] is on record as greater than 943.

Take `O=S(=O)(Nc1nccs1)c1cc(Cl)c(NCCCCNCC2CCC(c3ccccc3)CN2)cc1F` (stereo not drawn) [Ex 8-14, 5-chloro-2-fluoro-4-[(4-{[(5-phenyl-piperidin-2-yl)-methyl]amino}butyl)amino]-N-1,3-thiazol-2-yl-benzenesulfonamide]: the IC50 in assay [1] is 14 nM. For the same molecule, the “ratio” value in assay [2] came out at 2290.

Regarding `O=S(=O)(Nc1nccs1)c1cc(Cl)c(NCCCCNCCNCc2ccccc2)cc1F` [Ex 1-3, 4-[(4-{[2-(benzylamino)ethyl]amino}butyl)amino]-5-chloro-2-fluoro-N-1,3-thiazol-2-ylbenzenesulfonamide], the 50% inhibitory concentration (IC50) in assay [1] was found to be 7 nM. The “ratio” value in assay [2] is greater than 4700.

Turning to `NCC1(c2ccccc2)CCN(CCCCNc2cc(F)c(S(=O)(=O)Nc3nccs3)cc2Cl)CC1` [Ex 1-45, 4-({4-[4-(aminomethyl)-4-phenylpiperidin-1-yl]butyl}amino)-5-chloro-2-fluoro-N-1,3-thiazol-2-ylbenzenesulfonamide], the IC50 in assay [1] was determined as 110 nM.

On to `NCC1CCN1CCCCNc1cc(F)c(S(=O)(=O)Nc2nccs2)cc1Cl` (single isomer, unassigned) [Ex 16-52, (R or S)-4-({4-[2-(aminomethyl)-azetidin-1-yl]butyl}amino)-5-chloro-2-fluoro-N-1,3-thiazol-2-ylbenzene-sulfonamide], for which the IC50 in assay [1] was found to be 31 nM.

Take `O=S(=O)(Nc1nccs1)c1cc(Cl)c(NCCCCNCC2NCc3ccccc32)cc1F` (single isomer, unassigned) [Ex 2-4 Enantiomer A, (R or S)-5-chloro-2-fluoro-4-((4-((isoindolin-1-ylmethyl)amino)butyl)amino)-N-(thiazol-2-yl)benzenesulfonamide]: in assay [1], the IC50 came out at 29 nM.

For the molecule `O=S(=O)(Nc1nccs1)c1cc(Cl)c(NCCCCNCC2Cc3ccccc3CN2)cc1F` (stereo not drawn) [Ex 1-9, 5-chloro-2-fluoro-4-({4-[(1,2,3,4-tetrahydroisoquinolin-3-ylmethyl)amino]butyl}amino)-N-1,3-thiazol-2-ylbenzenesulfonamide], in assay [1], the IC50 turned out to be 13 nM.

Take `O=S(=O)(Nc1nccs1)c1cc(Cl)c(NCCCCN2CCC3(CCNC3)C2)cc1F` (stereo not drawn) [Ex 1-38, 5-chloro-4-{[4-(2,7-diazaspiro[4.4]non-2-yl)butyl]amino}-2-fluoro-N-1,3-thiazol-2-ylbenzenesulfonamide]: the IC50 in assay [1] was determined as 44 nM.

Regarding `O=S(=O)(Nc1ncc(F)s1)c1cc(Br)c(NCCCCN2C[C@H]3CCCN[C@H]3C2)cc1F` [Ex 16-44, 5-bromo-2-fluoro-N-(5-fluoro-1,3-thiazol-2-yl)-4-({4-[(4aR,7aR)-octahydro-6H-pyrrolo[3,4-b]pyridin-6-yl]butyl}amino)benzene-sulfonamide], the IC50 in assay [1] is 12 nM.

In the case of `O=S(=O)(Nc1cccc(F)n1)c1cc(Cl)c(NCCCCCNC[C@@H]2CCCN2)cc1F` [Ex 9-2, (S)-5-chloro-2-fluoro-N-(6-fluoropyridin-2-yl)-4-((5-((pyrrolidin-2-ylmethyl)amino)pentyl)amino)benzenesulfonamide], the concentration for half-maximal inhibition (IC50) in assay [1] came to 29 nM.

Regarding `O=S(=O)(Nc1nccs1)c1cc(Cl)c(NCCCCCNCC2CCCCN2)cc1F` (stereo not drawn) [Ex 9-03, 5-chloro-2-fluoro-4-({5-[(piperidin-2-ylmethyl)-amino]pentyl}amino)-N-1,3-thiazol-2-yl-benzenesulfonamide], the half-inhibitory concentration (IC50) in assay [1] was determined as 19 nM.

Regarding `NCC1CN(CCCCNc2cc(F)c(S(=O)(=O)Nc3ncns3)cc2Br)C1` [Ex 16-37, 4-((4-(3-(aminomethyl)azetidin-1-yl)butyl)amino)-5-bromo-2-fluoro-N-(1,2,4-thiadiazol-5-yl)benzenesulfonamide], in assay [1], the half-inhibitory concentration (IC50) came out at 10 nM.

As to `C[C@H](CNC1CCOCC1)NCCCCNc1cc(F)c(S(=O)(=O)Nc2nccs2)cc1Cl` [Ex 1-26, 5-chloro-2-fluoro-4-[(4-{[(1R)-1-methyl-2-(tetrahydro-2H-pyran-4-ylamino)ethyl]amino}butyl)amino]-N-1,3-thiazol-2-ylbenzenesulfonamide], the concentration for half-maximal inhibition (IC50) in assay [1] was 30 nM.

For the molecule `NCc1ccccc1CNCCCCNc1cc(F)c(S(=O)(=O)Nc2nccs2)cc1Cl` [Ex 3-4, 4-((4-((2-(aminomethyl)benzyl)amino)butyl)amino)-5-chloro-2-fluoro-N-(thiazol-2-yl)benzenesulfonamide], the IC50 in assay [1] turned out to be 21 nM.

`O=S(=O)(Nc1nccs1)c1cc(Cl)c(NCCCCN2CC[C@@H]3CCNC[C@@H]32)cc1F` [Ex 1-21, 5-chloro-2-fluoro-4-({4-[(3a5,7aR)-octahydro-1H-pyrrolo[2,3-c]pyridin-1-yl]butyl}amino)-N-1,3-thiazol-2-ylbenzenesulfonamide]: the 50% inhibitory concentration (IC50) in assay [1] was found to be 21 nM.

(Values after patent US10968210B2, “Diamino-alkylamino-linked arylsulfonamide compounds with selective activity in voltage-gated sodium channels” (Merck Sharp & Dohme Corp., priority 2016, dated 2021).)
